Measurements taken from PMC7762503, “Pathomechanism characterization and potential therapeutics identification for SCA3 targeting neuroinflammation” (Aging (Albany NY), 2020).

How the values were obtained:
[1] = MTT cytotoxicity assay, SH-SY5Y cells; assay type: cell-based; settings: human, 0.1−100 μM, 6 days treatment, read-out: IC50 (cytotoxicity, MTT viability)
Method: (§1) To evaluate compound cytotoxicity, 2 × 10^4 (HMC3) or 1 × 10^4 (SH-SY5Y) cells were plated on 48-well dishes, grown for 20 h, and treated with the tested compounds (0.1−100 μM). After 28 h (HMC3) or 6 days (SH-SY5Y), 20 μl of 3-(4,5-dimethylthiazol-2-yl)-2,5-diphenyltetrazolium bromide (MTT) (5 mg/ml) was added to the cells at 37°C for 3 h. 200 μl of lysis buffer (10% Triton X-100, 0.1 N HCl, 18% isopropanol) was then added to dishes and the absorbance of the insoluble purple formazan product at OD 570 nm was read by a FLx800 fluorescence microplate spectrophotometer (Bio-Tek, Winooski, VT, USA). The IC50 of the tested compounds were calculated using the interpolation method.

[2] = test system: ATXN3/Q75-GFP; assay: High content polyQ aggregation analysis, ATXN3/Q75-GFP SH-SY5Y cells; assay type: cell-based, human; settings: 10 μM compound, ATXN3/Q75-GFP-expressing cells; for reduction of aggregation: vs untreated 2.8%
Method: (§2) ATXN3/Q75-GFP SH-SY5Y cells were plated on 24-well (1 × 10^4/well) dishes, and retinoic acid (10 μM; Sigma-Aldrich) was added to initiate neuronal differentiation. On the second day, cells were treated with the tested compound (10 μM) for 8 h before ATXN3-GFP expression induction by adding doxycycline (5 μg/ml). For comparison, cells without inducing ATXN3/Q75-GFP expression were included. The cells were kept in the medium containing retinoic acid, doxycycline and test compound for 6 days. For the cells with inflammatory stimulation, HMC3 conditioned medium with (CM/+IFN-γ) or without (CM/–IFN-γ) IFN-γ stimulation was added at a 1:1 ratio in the last two days. On the eighth day, cells were stained with Hoechst 33342 (0.1 μg/ml; Sigma-Aldrich) for 30 min, and images of the cells were automatically obtained using an ImageXpressMICRO high content analysis (HCA) system (Molecular Devices, San Jose, CA, USA). Excitation/emission filters were at 482/536 and 377/447 nm for enhanced GFP and Hoechst 33342, respectively. Aggregation was determined by Transfluor technology based on GFP fluorescence intensity. Neurite length, process and branch of ATXN3/Q75-GFP-expressing cells were analyzed by using Metamorph microscopy automation and image analysis software (neurite outgrowth application module, Molecular Devices). In addition, cells were fixed, permeated and stained with neuronal class III β-tubulin (TUBB3) antibody (1:1000; Covance, Princeton, NJ, USA), followed by anti-rabbit Alexa Fluor ®555 antibody (1:1000; Thermo Fisher Scientific) for neurite outgrowth analysis. To quantify neurite outgrowth, microscopic images were segmented with multi-colored mask to assign each outgrowth to a cell body for quantification. In general, 10^4 cells in each biological replicate were analyzed.

[3] = DPPH radical-scavenging assay; settings: 200 μM DPPH, compounds 10–160 μM, 30 min, room temperature
Method: The DPPH radical-scavenging activity was measured in an ethanol mixture containing 200 μM DPPH (Sigma-Aldrich) radical solution and the tested compounds (10–160 μM). The solution was vortexed and incubated for 30 min at room temperature. The scavenging capacity was measured by monitoring the decrease in absorbance at 517 nm with a microplate spectrophotometer (Multiskan GO, Thermo Fisher Scientific). The half maximal effective concentrations (EC50) for inhibition of the formation of DPPH radicals were calculated using the interpolation method.

[4] = test system: ATXN3/Q75-GFP; assay: Western blot of soluble ATXN3/Q75-GFP protein; assay type: cell-based, human; settings: 10 μM compound; without compound = 100%
Method: Cells were lysed using buffer (50 mM Tris-HCl pH8.0, 0.5% sodium deoxycholate, 0.1% SDS, 150 mM NaCl, 2 mM EDTA, 50 mM NaF and 1% NP40) containing the protease inhibitor cocktail (Sigma-Aldrich). After sonication, the lysates were centrifuged at 12,000 × g for 10 min at 4°C. Protein concentrations were determined using a protein assay kit (Bio-Rad, Hercules, CA, USA), with albumin as standards. Total soluble proteins (20 μg) were electrophoresed on 10% SDS-polyacrylamide gel and transferred onto polyvinylidene difluoride membrane (Sigma-Aldrich) by reverse electrophoresis. After being blocked, the membrane was stained with ATXN3 (1:1000; GeneTex, Irvive, CA, USA), GFP (1:1000; Santa Cruz Biotechnology, Santa Cruz, CA, USA), CD68 (1:1000; Cell Signaling), IκBα (1:1000; Cell Signaling), p-IκBα (S32/36) (1:1000; Cell Signaling), P65 (1:1000; Cell Signaling), p-P65 (S536) (1:1000; Cell Signaling), JNK (1:1000; Cell Signaling), p-JNK (T183/Y185) (1:500; Cell Signaling), JUN, p-JUN (S63) (1:1000; Cell Signaling), P38 (1:1000; Cell Signaling), p-P38 (T180/Y182) (1:1000; Cell Signaling), STAT1 (1:1000; Cell Signaling), p-STAT1 (S727) (1:1000; Cell Signaling), or GAPDH (1:5000; MDBio Inc., Taipei, Taiwan) primary antibody at room temperature 2 h or 4°C overnight. The immune complexes were detected using horseradish peroxidase (HRP)-conjugated goat anti-mouse or goat anti-rabbit IgG antibody (1:5000; GeneTex) and chemiluminescent HRP substrate (Millipore, Billerica, MA, USA).

[5] = test system: ATXN3/Q75-GFP SH-SY5Y cells; assay: Neurite outgrowth analysis, ATXN3/Q75-GFP SH-SY5Y cells; assay type: cell-based, human; settings: 10 μM compound, ATXN3/Q75-GFP-expressing cells; for neurite branch: untreated 1.0; for neurite process: untreated 1.8; for neurite length: untreated 23.6 μm
Method: as §2

[6] = test system: ATXN3/Q75-GFP SH-SY5Y cells; assay: Neurite outgrowth analysis, CM/+IFN-γ-inflamed ATXN3/Q75-GFP SH-SY5Y cells; assay type: cell-based, human; settings: 10 μM compound; for neurite process: untreated 1.4; for neurite length: untreated 14.4 μm
Method: as §2

[7] = MTT cytotoxicity assay, HMC3 cells; assay type: cell-based; settings: human, 0.1−100 μM, 28 h treatment, read-out: IC50 (cytotoxicity, MTT viability)
Method: as §1

EC50 [3] | DPPH scavenging activity EC50 [3] | SMILES | IC50 at 6 days [1] | reduction of aggregation [2] | soluble ATXN3/Q75-GFP protein (Western blot, GFP antibody) [4] | neurite branch [5] | neurite process [5] | neurite length [5] | neurite branch ([6]; untreated 0.6) | neurite process [6] | neurite length [6] | IC50 at 28 h [7] | polyQ aggregation (cells with aggregates) ([2]; untreated 2.8%)
100 µM |  | O=C(c1ccccc1)c1cc2c(O)cccc2oc1=O [LM-031, 3-benzoyl-5-hydroxychromen-2-one] | > 100 µM | 12–25% | 144−173% | 1.2 | 2.0–2.1 | 26.9–27.2 μm | 0.8 | 1.6 | 17.3–18.0 μm | > 100 µM | 
27 µM |  | O=c1c(O)c(-c2ccc(O)cc2)oc2cc(O)cc(O)c12 [Kaempferol, kaempferol, reference compound] |  |  |  |  |  |  |  |  |  |  | 
 | no detectable DPPH-scavenging activity | CC(=O)/C(=C/c1ccccc1[N+](=O)[O-])Cc1c[nH]c2ccccc12 [NC009-1] | 52 µM | 12–25% | 144−173% | 1.2 | 2.0–2.1 | 26.9–27.2 μm |  | 1.6 | 17.3–18.0 μm | > 100 µM | 
 | no detectable DPPH-scavenging activity | O=[N+]([O-])c1cccc2nc(/C=C/c3cc4ccccc4nc3N3CCOCC3)ccc12 [VB-037] | 78 µM | 12–25% | 144−173% | 1.2 | 2.0–2.1 | 26.9–27.2 μm |  |  |  | > 100 µM | 

SMILES | EC50 [3] | DPPH scavenging activity EC50 [3] | IC50 at 6 days [1] | reduction of aggregation [2] | soluble ATXN3/Q75-GFP protein (Western blot, GFP antibody) [4] | neurite branch [5] | neurite process [5] | neurite length [5] | neurite branch ([6]; untreated 0.6) | neurite process [6] | neurite length [6] | IC50 at 28 h [7] | polyQ aggregation (cells with aggregates) ([2]; untreated 2.8%)
CCCCC/C=C\C/C=C\C/C=C\C/C=C\CCCC(=O)Nc1ccc(O)cc1 [AM404, reference compound] | 141 µM |  | 49 µM |  |  | 1.4 | 2.2 | 30.8 μm |  | 1.6 | 17.3–18.0 μm | 84 µM | not reducing ATXN3/Q75 aggregation
